Assay results as given in ChEMBL document CHEMBL2346580, “Design, synthesis and SAR investigation of thienosultam derivatives as ADAMTS-5 (aggrecanase-2) inhibitors” (Bioorg Med Chem Lett, 2013).

Legend:
[1] = biological target: T1, A disintegrin and metalloproteinase with thrombospondin motifs 4 (Homo sapiens) (UniProt O75173); assay: Inhibition of ADAMTS4 (unknown origin)
T1 sequence (whole entry): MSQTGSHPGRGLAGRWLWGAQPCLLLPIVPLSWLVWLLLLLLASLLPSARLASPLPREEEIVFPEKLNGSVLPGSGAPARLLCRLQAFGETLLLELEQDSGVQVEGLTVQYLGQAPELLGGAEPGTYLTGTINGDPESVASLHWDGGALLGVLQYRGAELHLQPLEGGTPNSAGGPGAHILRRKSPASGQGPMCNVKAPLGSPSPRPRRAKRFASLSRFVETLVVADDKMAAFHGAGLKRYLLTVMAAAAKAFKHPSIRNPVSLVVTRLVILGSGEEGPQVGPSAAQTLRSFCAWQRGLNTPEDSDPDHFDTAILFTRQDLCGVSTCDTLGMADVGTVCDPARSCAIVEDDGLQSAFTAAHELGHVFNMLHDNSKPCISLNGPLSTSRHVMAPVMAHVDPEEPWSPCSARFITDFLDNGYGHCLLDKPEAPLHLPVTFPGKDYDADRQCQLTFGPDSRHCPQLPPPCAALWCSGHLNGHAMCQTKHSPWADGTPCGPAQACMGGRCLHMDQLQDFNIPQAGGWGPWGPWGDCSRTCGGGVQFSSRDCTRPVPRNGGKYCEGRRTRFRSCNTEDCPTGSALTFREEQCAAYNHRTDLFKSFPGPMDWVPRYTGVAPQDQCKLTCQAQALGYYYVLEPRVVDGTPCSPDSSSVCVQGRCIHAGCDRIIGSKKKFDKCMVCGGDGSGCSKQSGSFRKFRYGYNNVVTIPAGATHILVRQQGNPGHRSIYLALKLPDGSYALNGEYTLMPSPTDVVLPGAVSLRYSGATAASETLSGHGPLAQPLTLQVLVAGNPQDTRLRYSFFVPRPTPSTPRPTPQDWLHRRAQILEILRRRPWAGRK

[2] = biological target: 72 kDa type IV collagenase (Homo sapiens) (UniProt P08253); assay: Inhibition of MMP2 (unknown origin)
[3] = biological target: Stromelysin-1 (Homo sapiens) (UniProt P08254); assay: Inhibition of MMP3 (unknown origin)
[4] = biological target: T2, A disintegrin and metalloproteinase with thrombospondin motifs 5 (Homo sapiens) (UniProt Q9UNA0); assay: Inhibition of ADAMTS5 (unknown origin) using QF-peptide containing an aggrecanase cleavage site by FRET assay
T2 sequence (whole entry): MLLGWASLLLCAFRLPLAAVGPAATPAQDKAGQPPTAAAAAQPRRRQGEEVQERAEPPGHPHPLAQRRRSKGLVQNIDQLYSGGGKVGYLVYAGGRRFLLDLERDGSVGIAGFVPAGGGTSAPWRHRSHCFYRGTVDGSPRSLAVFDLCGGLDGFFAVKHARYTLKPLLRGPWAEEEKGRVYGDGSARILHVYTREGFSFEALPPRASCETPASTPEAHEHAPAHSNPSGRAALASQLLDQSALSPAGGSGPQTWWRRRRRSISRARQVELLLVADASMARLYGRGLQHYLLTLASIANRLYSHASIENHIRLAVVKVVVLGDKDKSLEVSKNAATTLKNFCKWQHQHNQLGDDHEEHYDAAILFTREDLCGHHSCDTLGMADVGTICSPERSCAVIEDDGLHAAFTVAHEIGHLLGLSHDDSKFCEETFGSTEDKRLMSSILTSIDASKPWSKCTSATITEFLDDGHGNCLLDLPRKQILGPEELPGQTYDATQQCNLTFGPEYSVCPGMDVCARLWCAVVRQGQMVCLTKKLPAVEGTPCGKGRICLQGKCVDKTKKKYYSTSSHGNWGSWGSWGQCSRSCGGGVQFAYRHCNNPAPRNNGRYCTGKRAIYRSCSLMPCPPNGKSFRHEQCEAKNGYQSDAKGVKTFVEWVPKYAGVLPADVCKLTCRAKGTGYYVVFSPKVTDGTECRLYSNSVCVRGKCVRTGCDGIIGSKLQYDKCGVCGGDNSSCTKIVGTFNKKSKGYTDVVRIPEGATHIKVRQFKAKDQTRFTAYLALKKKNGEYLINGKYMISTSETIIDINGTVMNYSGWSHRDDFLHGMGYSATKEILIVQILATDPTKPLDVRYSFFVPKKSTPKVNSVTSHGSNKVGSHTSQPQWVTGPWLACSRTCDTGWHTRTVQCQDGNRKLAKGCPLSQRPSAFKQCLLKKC

[5] = Clearance in Sprague-Dawley rat at 1 mg/kg, iv and 5 mg/kg, po; type: ADME, organism-based; conditions: in vivo
[6] = Volume of distribution at steady state in Sprague-Dawley rat at 1 mg/kg, iv and 5 mg/kg, po; type: ADME, organism-based; conditions: in vivo, read-out: Vdss
[7] = Half life in Sprague-Dawley rat at 1 mg/kg, iv and 5 mg/kg, po; type: ADME, organism-based; conditions: in vivo
[8] = AUC (0 to infinity) in Sprague-Dawley rat at 1 mg/kg, iv and 5 mg/kg, po; type: ADME, organism-based; conditions: plasma
Rattus norvegicus [9] = assay: (§1) Oral bioavailability in Sprague-Dawley rat at 5 mg/kg; type: ADME, organism-based; conditions: in vivo
[10] = biological target: Matrix metalloproteinase-14 (Homo sapiens) (UniProt P50281); assay: Inhibition of MMP14 (unknown origin)
Rattus norvegicus [11] = assay: Cmax in Sprague-Dawley rat at 1 mg/kg, iv and 5 mg/kg, po; type: ADME, organism-based; conditions: in vivo
Homo sapiens = species: Homo sapiens; assay: Selectivity ratio of inhibition of MMP2 (unknown origin) to ADAMTS5 (unknown origin)
[12] = as §1; type: ADME, organism-based; conditions: Sprague-Dawley, in vivo
[13] = biological target: T1, A disintegrin and metalloproteinase with thrombospondin motifs 4 (Homo sapiens); assay: Inhibition of ADAMTS4 (unknown origin) at 10 uM
[14] = biological target: T2, A disintegrin and metalloproteinase with thrombospondin motifs 5 (Homo sapiens); assay: Inhibition of ADAMTS5 (unknown origin) using QF-peptide containing an aggrecanase cleavage site at 10 uM by FRET assay

Stromelysin-1 (Homo sapiens), sequence (P08254 100-477 limits assumed): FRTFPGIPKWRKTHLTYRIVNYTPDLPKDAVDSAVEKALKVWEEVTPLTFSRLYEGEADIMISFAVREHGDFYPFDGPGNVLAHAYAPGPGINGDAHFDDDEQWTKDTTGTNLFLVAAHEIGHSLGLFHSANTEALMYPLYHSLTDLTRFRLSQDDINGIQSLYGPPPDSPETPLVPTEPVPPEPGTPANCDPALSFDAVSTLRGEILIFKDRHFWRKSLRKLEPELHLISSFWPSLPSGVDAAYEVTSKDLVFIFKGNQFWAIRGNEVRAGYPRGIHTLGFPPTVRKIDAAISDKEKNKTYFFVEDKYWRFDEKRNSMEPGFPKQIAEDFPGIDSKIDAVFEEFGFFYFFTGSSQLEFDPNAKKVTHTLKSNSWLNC
72 kDa type IV collagenase (Homo sapiens), sequence (P08253 110-660 limits assumed): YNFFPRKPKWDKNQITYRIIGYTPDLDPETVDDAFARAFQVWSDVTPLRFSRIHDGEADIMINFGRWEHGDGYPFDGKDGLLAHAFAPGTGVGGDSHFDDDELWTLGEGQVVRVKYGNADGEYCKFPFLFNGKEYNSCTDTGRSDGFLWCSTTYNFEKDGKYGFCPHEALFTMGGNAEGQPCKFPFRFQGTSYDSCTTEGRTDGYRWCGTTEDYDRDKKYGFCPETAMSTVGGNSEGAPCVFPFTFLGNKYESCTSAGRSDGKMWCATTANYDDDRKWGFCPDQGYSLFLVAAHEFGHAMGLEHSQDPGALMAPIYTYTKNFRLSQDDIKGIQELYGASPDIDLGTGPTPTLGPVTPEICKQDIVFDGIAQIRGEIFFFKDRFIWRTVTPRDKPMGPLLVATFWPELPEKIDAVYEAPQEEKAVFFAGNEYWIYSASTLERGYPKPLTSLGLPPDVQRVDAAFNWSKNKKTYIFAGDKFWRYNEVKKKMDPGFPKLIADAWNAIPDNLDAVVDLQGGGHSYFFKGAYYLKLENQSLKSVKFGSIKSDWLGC

SMILES	INH [2] [µM]	INH [4] [µM]	Ratio (Homo sapiens)	also measured
CC(C)[C@H](NS(=O)(=O)c1ccc(-c2ccccc2)cc1)C(=O)O	0.04	8.2		INH [1]: 3 µM; INH [3]: 0.038 µM
CCC(C(=O)O)N1Cc2sc(C#Cc3ccc(N(C)C)cc3)cc2S1(=O)=O (racemic)	> 30	1.5	> 20	clearance [5]: 58.3 mL/min/kg; INH [1]: > 10 µM; Vd [6]: 0.34 L/kg; half-life [7]: 2.8 h; AUC(0-inf) [8]: 106000 ng·h/mL; F (Rattus norvegicus [9]): 179%; INH [10]: > 30 µM; Cmax (Rattus norvegicus [11]): 29500 ng/mL; INH [3]: > 30 µM
CCC(C(=O)O)N1Cc2sc(-c3ccc(-c4cnn(Cc5ccccc5)c4)cc3)cc2S1(=O)=O (racemic)	> 30	0.4	> 75	clearance [5]: 278 mL/min/kg; INH [1]: 8 µM; Vd [6]: 0.33 L/kg; half-life [7]: 1.8 h; AUC(0-inf) [8]: 4730 ng·h/mL; bioavailability [12]: 47%; INH [10]: > 30 µM; Cmax (Rattus norvegicus [11]): 3090 ng/mL; INH [3]: > 30 µM
CCC(C(=O)NO)N1Cc2sc(-c3ccc(-c4ccccc4)cc3)cc2S1(=O)=O (racemic)	0.3			inhibition [13]: 1.7%; inhibition [14]: 3%; INH [10]: < 30 µM; INH [3]: 20 µM
CCC(C(=O)NO)N1Cc2sc(-c3ccccc3)cc2S1(=O)=O (racemic)	0.03	2.1		INH [1]: 1.1 µM; INH [10]: 1.2 µM; INH [3]: 5.1 µM
CCC(C(=O)O)N1Cc2sc(-c3ccc(-c4ccc(N(C)C)nc4)cc3)cc2S1(=O)=O (racemic)	> 30	7	> 4.5	
CCC(C(=O)O)N1Cc2sc(-c3ccc(-c4ccc(N(C)Cc5ccccc5)nc4)cc3)cc2S1(=O)=O (racemic)	> 30	1	> 30	
CCC(C(=O)O)N1Cc2sc(-c3ccc(-c4ccc5ccn(C)c5c4)cc3)cc2S1(=O)=O (racemic)	16.5	1	16.5	
CCC(C(=O)O)N1Cc2sc(-c3ccc(-c4ccc5cnn(C)c5c4)cc3)cc2S1(=O)=O (racemic)	4	0.3	13.3	
CCC(C(=O)O)N1Cc2sc(-c3ccc(-c4ccccc4)cc3)cc2S1(=O)=O (racemic)	1.8	2.1	0.78	INH [1]: 1.1 µM; inhibition [13]: 1.6%; INH [10]: < 5.1 µM; INH [3]: 1.2 µM
CCC(C(=O)O)N1Cc2sc(-c3ccc(-c4cccnc4)cc3)cc2S1(=O)=O (racemic)	> 30	> 10		
CCC(C(=O)O)N1Cc2sc(-c3ccc(-c4cccs4)cc3)cc2S1(=O)=O (racemic)	> 30	1.3	> 23	
CCC(C(=O)O)N1Cc2sc(-c3ccc(-c4ccsc4)cc3)cc2S1(=O)=O (racemic)	> 30	2.3	> 13	
CCC(C(=O)O)N1Cc2sc(-c3ccc(-c4cnn(C)c4)cc3)cc2S1(=O)=O (racemic)	> 30	> 10		
CCC(C(=O)O)N1Cc2sc(-c3ccc(/C=C/c4ccccc4)cc3)cc2S1(=O)=O (racemic)	3.9	1.4	2.79	
CCC(C(=O)O)N1Cc2sc(-c3ccccc3)cc2S1(=O)=O (racemic)	16			inhibition [13]: 1.7%; inhibition [14]: 3%; INH [10]: > 30 µM; INH [3]: 12 µM
CCC(C(=O)O)N1Cc2sc(-c3ccn(C#Cc4ccccc4)n3)cc2S1(=O)=O (racemic)	> 30	4	> 7.5	
CCC(C(=O)O)N1Cc2sc(-c3ccn(Cc4ccccc4)n3)cc2S1(=O)=O (racemic)	> 30			inhibition [14]: 43.2%
CCC(C(=O)O)N1Cc2sc(/C=C/c3ccc(C(F)(F)F)cc3)cc2S1(=O)=O (racemic)	2	3.2	0.63	
CCC(C(=O)O)N1Cc2sc(C#CCC3CCCCC3)cc2S1(=O)=O (racemic)	> 30	8.9	> 3.37	
CCC(C(=O)O)N1Cc2sc(C#Cc3cc(C(F)(F)F)cc(C(F)(F)F)c3)cc2S1(=O)=O (racemic)	> 30	4.9	> 6.12	
CCC(C(=O)O)N1Cc2sc(C#Cc3ccc(-c4ccccc4)cc3)cc2S1(=O)=O (racemic)	> 30	1.5	> 20	
CCC(C(=O)O)N1Cc2sc(C#Cc3ccccn3)cc2S1(=O)=O (racemic)	> 30	9.3	> 3.23	
CCC(C(=O)O)N1Cc2sc(N3CCN(c4ccccc4)CC3)cc2S1(=O)=O (racemic)	> 30			inhibition [14]: 9%
